Laboratory results published in PubChem BioAssay (NCI).
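How tested: cells in 96-well plates exposed to compound for 48 hours at five concentrations. The concentration for 50% growth inhibition is given as GI50. TGI is the concentration that stops growth completely.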

Assays:
Test in all cases: DTP human tumour cell line panel, 48 h
[1] = test system: ACHN renal
[2] = test system: MDA-MB-231 breast
[3] = test system: NCI/ADR-RES ovarian
[4] = test system: NCI-H226 lung
[5] = test system: SR leukemia
[6] = test system: MOLT-4 leukemia
[7] = test system: TK-10 renal
[8] = test system: COLO 205 colon
[9] = test system: SK-MEL-2 melanoma
[10] = test system: NCI-H522 lung
[11] = test system: UACC-257 melanoma
[12] = test system: IGROV1 ovarian
[13] = test system: KM12 colon
[14] = test system: MALME-3M melanoma
[15] = test system: HOP-62 NSCLC
[16] = test system: K-562 leukemia
[17] = test system: PC-3 prostate
[18] = test system: U251 CNS
[19] = test system: LOX IMVI melanoma
[20] = test system: MCF7 breast
[21] = test system: OVCAR-4 ovarian
[22] = test system: OVCAR-8 ovarian
[23] = test system: SN12C renal
[24] = test system: SF-539 CNS
[25] = test system: DU-145 prostate
[26] = test system: RXF 393 renal
[27] = test system: A498 renal
[28] = test system: SK-OV-3 ovarian
[29] = test system: SF-268 CNS

COc1ccc(C(=O)/C=C/c2ccc(Cl)c(Cl)c2)cc1S(N)(=O)=O gave a TGI [1] of 3.11 µM, a GI50 [2] of 1.99 µM and a TGI [2] of 4.11 µM. It also gave a GI50 [3] of 2.25 µM, a TGI [3] of 5.93 µM and a GI50 [4] of 3.04 µM. It also gave a TGI [4] of 13.4 µM, a GI50 [5] of 0.797 µM and a TGI [5] of 10.2 µM. The GI50 [6] was 2.35 µM, the TGI [6] was 6.75 µM and the GI50 [7] was 2.02 µM. The TGI [7] was 5.89 µM, the GI50 [8] was 1.83 µM and the TGI [8] was 3.43 µM. The GI50 [9] was 5.66 µM, the TGI [9] was 18.6 µM and the GI50 [10] was 1.58 µM. For the same compound, the TGI [10] was 3.16 µM, the GI50 [11] was 2.5 µM and the TGI [11] was 8.99 µM. The GI50 [12] was 2 µM, the TGI [12] was 5.13 µM and the GI50 [13] was 0.888 µM. It also gave a TGI [13] of 2.43 µM, a GI50 [14] of 2.15 µM and a TGI [14] of 5.17 µM. It also gave a GI50 [15] of 1.89 µM, a TGI [15] of 4.75 µM and a GI50 [16] of 2.03 µM. It also gave a TGI [16] of 10.8 µM, a GI50 [17] of 1.86 µM and a TGI [17] of 5.07 µM. For the same compound, the GI50 [18] was 1.41 µM, the TGI [18] was 2.93 µM and the GI50 [19] was 0.653 µM. The TGI [19] was 1.93 µM, the GI50 [20] was 1.05 µM and the TGI [20] was 3.16 µM. The GI50 [21] was 1.6 µM, the TGI [21] was 2.97 µM and the GI50 [22] was 2 µM. For the same compound, the TGI [22] was 5.75 µM, the GI50 [23] was 1.39 µM and the TGI [23] was 2.74 µM. The GI50 [24] was 1.67 µM, the TGI [24] was 3.25 µM and the GI50 [25] was 3.5 µM. It also gave a TGI [25] of 12.8 µM, a GI50 [26] of 1.74 µM and a TGI [26] of 3.5 µM. The GI50 [27] was 8.86 µM, the TGI [27] was 22.1 µM and the GI50 [28] was 5.53 µM. The TGI [28] was 18 µM, the GI50 [29] was 2.91 µM and the TGI [29] was 11.9 µM.
